Data published in US5491151A, “Antitumor treatment method” (Kabushiki Kaisha Hayashibara Seibutsu Kagaku Kenkyujo, priority 1989, dated 1996).

Columns and labels:
macrophage = test: Activation of macrophage by cyanine dye (adherent ascites cells of treated mice cultured with Meth A ascitic tumor cells, 3H-thymidine incorporation); assay type: cell-based, BALB/c mice; conditions: 50 ng/0.2 ml/animal intraperitoneal to mice, cells collected two days later
Protocol: Two days after the administration, the ascites of the mice were extracted, and the cells which adhered onto plastic Petri dish were collected.
Control group was intraperitoneally administered with 0.2 ml saline.
Thereafter, the incorporation of ^3 H-thymidine in the tumor cell was determined by conventional method, and the growth inhibitory rate for tumor (%) was calculated with the following equation.

Meth A ascitic tumor = test: Synergistic effect by the combination with hyperthermia (growth inhibition of Meth A tumor); assay type: in vivo, BALB/c mice; conditions: 20 ng/0.1 ml/animal s.c. twice a week; for Mean wet weight of tumor: 40th day; for Growth inhibitory rate for tumor (%): control = 100
Protocol: More particularly, 6 week-old BALB/c mice were subcutaneously transplanted in their femoral area with 2×10^5 cells/animal of Meth A cell. […] Immediately after every administration, the tumoral sites of the mice were soaked in about 42° C. water bath for about 60 minutes. On the 40th day after the transplantation, the mean wet weight of tumor was determined by the method in Experiment 2-2.
Separately, one of other groups was administered with either cyanine dye, and determined for its mean wet weight of tumor, while one another group was first administered with saline, then subjected to hyperthermia, followed by determining the mean wet weight of tumor.
Control group was subcutaneously injected with 0.1 ml saline in the femoral area.
The mean wet weights of tumor were put into the following equation to calculate the growth inhibitory rate for tumor (%) which was then used to evaluate any synergistic effect by the combination of cyanine dye and hyperthermia. [formula]

MC-1 cell = test: Antitumor effect by growth inhibition of tumor (MC-1, with or without light-irradiation); assay type: in vivo, C57BL/6 mice; conditions: for Mean wet weight of tumor: 27th day, * significant at 5% or lower; for Rate of survival (%): 35th day
Protocol: Compounds No.1, 7 and 8 in Table I were evaluated for their antitumor activity using as the criterion the growth inhibitory effect on MC-1 cell, a methylcholanthrene-induced syngenic tumor.
Eight week-old female C57BL/6 mice were subcutaneously transplanted in their dorsum area with 1×10^5 cells/animal of MC-1 cell. Five days after the transplantation, a group of seven mice with a successful transplantation were subcutaneously administered with either Compound No.1, 7 or 8 in Table I twice a week over a period of 25 days while monitoring the mice.
One another group of mice were light-irradiated with 100 W medical infrared lamp (100 V) placed about one meter in apart immediately after every administration of either Compound No.1, 7 or 8.
Control group was subcutaneously administered with 0.2 ml saline in accordance with the same administration schedule.
On the 27th day after the transplantation, the wet weight of tumor was determined by the method in Y. Shimosato and N. Tamaoki, Human Cancer and Nude mice, pp. 321-323, published by Ishiyaku Publishers Inc., Tokyo, Japan (1982), as well as monitoring the rate (%) of survivals on the 35th day.

Acute toxicity (LD50) = assay type: in vivo; conditions: mouse, in vivo, 7 days
Protocol: (§1) Either of Compounds No.1-8 in Table I was dissolved or suspended in saline containing 5% gum arabic, and a group of ddy mice, about 10-20 g each, received an intraperitoneal or oral administration of the resultant mixture occasionally through a stomach tube, followed by monitoring and counting dead mice for an additional 7 days to determine respective LD50 value in accordance with the Van der Waerden's method.

[1] = test system: Meth A ascitic tumor cell; test: Antitumor effect on tumor-bearing mouse (life-span increasing effect, Meth A ascitic tumor); assay type: in vivo, BALB/c mice; conditions: for Mean survival days: i.p. twice a week over 40 days, * significant to control at 5% or lower; for Increase in life-span (T/C %) / Survivals after 40 days: i.p.; for Increase in life-span (T/C %): control = 100; for Survivals after 40 days: group of seven mice
Protocol: Compounds No.1, 7 and 8 in Table I were evaluated for their antitumor activity using as the criterion the life-span increasing effect on tumor-bearing mice which had received the transplantation of Meth A ascitic tumor cell.
More particularly, 8 week-old male BALB/c mice were intraperitoneally transplanted with 1×10^5 cells/mouse of Meth A cell. Ten days after the transplantation, a group of seven mice with a successful transplantation were intraperitoneally administered with either Compound No.1, 7 or 8 in Table I twice a week over a period of 40 days while monitoring the mice.
Control group was intraperitoneally administered with 0.2 ml saline in accordance with the same administration schedule.
The rate of increase in life-span (T/C %) under the above conditions was calculated from the mean survival days found for the test group (T) and control group (C). [formula]

ddy mice = test: Acute toxicity (LD50); assay type: in vivo; conditions: 7 days
Protocol: as §1

[2] = combined with hyperthermia (about 42° C., 60 minutes)
[3] = 0.5 ng/0.2 ml/animal s.c., combined with light-irradiation
[4] = 0.5 ng/0.2 ml/animal s.c., no light-irradiation
[5] = 5 ng/0.2 ml/animal s.c., combined with light-irradiation
[6] = 5 ng/0.2 ml/animal s.c., no light-irradiation
[7] = 50 ng/0.2 ml/animal s.c., combined with light-irradiation
[8] = 50 ng/0.2 ml/animal s.c., no light-irradiation
[9] = ip, intraperitoneal administration
[10] = intraperitoneal administration, 10080 min

| SMILES | Growth inhibitory rate (%) (macrophage) | Mean wet weight of tumor (Meth A ascitic tumor; [2]) [g] | Growth inhibitory rate for tumor (%) (Meth A ascitic tumor; combined with hyperthermia) | Mean wet weight of tumor (Meth A ascitic tumor; no hyperthermia) [g] | Growth inhibitory rate for tumor (%) (Meth A ascitic tumor; no hyperthermia) | Mean wet weight of tumor (MC-1 cell; [3]) [g] | Rate of survival (%) (MC-1 cell; [3]) | Mean wet weight of tumor (MC-1 cell; [4]) [g] | Rate of survival (%) (MC-1 cell; [4]) | Mean wet weight of tumor (MC-1 cell; [5]) [g] | Rate of survival (%) (MC-1 cell; [5]) | Mean wet weight of tumor (MC-1 cell; [6]) [g] | Rate of survival (%) (MC-1 cell; [6]) | Mean wet weight of tumor (MC-1 cell; [7]) [g] | Rate of survival (%) (MC-1 cell; [7]) | Mean wet weight of tumor (MC-1 cell; [8]) [g] | Rate of survival (%) (MC-1 cell; [8]) | LD50 at 168 h (Acute toxicity (LD50); [9]) [mg/kg] | LD50 at 168 h (Acute toxicity (LD50); po, oral administration) [mg/kg] | Mean survival days ([1]; 0.5 ng/0.2 ml/animal) [days] | further results |
| --- | --- | --- | --- | --- | --- | --- | --- | --- | --- | --- | --- | --- | --- | --- | --- | --- | --- | --- | --- | --- | --- |
| CCCCN1C=CC(=CC=C(C=Cc2cc[n+](CCCC)c3ccccc23)c2cc[n+](CCCC)c3ccccc23)c2ccccc21 | 37.6 | 0.62 ± 0.45 | 12.6 | 3.35 ± 1.75 | 68.2 | 3.3 ± 0.6 | 85.7 | 4.7 ± 1.0 | 71.4 | 1.9 ± 0.8 | 100 | 3.5 ± 0.8 | 100 | 2.6 ± 0.5 | 100 | 4.0 ± 0.4 | 85.7 | 84 | ≥ 4000 | 31.1 ± 4.2 | Increase in life-span (T/C %) ([1]; 0.5 ng/0.2 ml/animal): 105%; Survivals after 40 days ([1]; 0.5 ng/0.2 ml/animal): 0; Mean survival days ([1]; 5 ng/0.2 ml/animal): 42.9 ± 6.0 days; Increase in life-span (T/C %) ([1]; 5 ng/0.2 ml/animal): 145%; Survivals after 40 days ([1]; 5 ng/0.2 ml/animal): 5; Mean survival days ([1]; 50 ng/0.2 ml/animal): 39.9 ± 5.4 days; Increase in life-span (T/C %) ([1]; 50 ng/0.2 ml/animal): 135%; Survivals after 40 days ([1]; 50 ng/0.2 ml/animal): 4 |
| CCN1C=CC(=CC=C(C=Cc2cc[n+](CC)c3ccccc23)c2cc[n+](CC)c3ccccc23)c2ccccc21 [Compound No.1, [bis-4-(ethylquinoline)][γ-4'-(1-ethylquinoline)] pentamethine cyanine diiodide] | 25.1 | 0.12 ± 0.15 | 2.4 | 3.24 ± 1.45 | 65.9 | 2.8 ± 0.3 | 100 | 4.1 ± 0.5 | 85.7 | 0.8 ± 0.1 | 100 | 3.1 ± 0.4 | 100 | 1.5 ± 0.3 | 100 | 3.7 ± 0.2 | 100 | 34 | ≥ 4000 | 36.1 ± 4.3 | Increase in life-span (T/C %) ([1]; 0.5 ng/0.2 ml/animal): 122%; Survivals after 40 days ([1]; 0.5 ng/0.2 ml/animal): 2; Mean survival days ([1]; 5 ng/0.2 ml/animal): 48.9 ± 4.2 days; Increase in life-span (T/C %) ([1]; 5 ng/0.2 ml/animal): 165%; Survivals after 40 days ([1]; 5 ng/0.2 ml/animal): 7; Mean survival days ([1]; 50 ng/0.2 ml/animal): 45.6 ± 4.2 days; Increase in life-span (T/C %) ([1]; 50 ng/0.2 ml/animal): 154%; Survivals after 40 days ([1]; 50 ng/0.2 ml/animal): 6 |
| CN1C(=CC=C(C=Cc2sc3ccccc3[n+]2C)c2sc3ccccc3[n+]2C)Sc2ccccc21 [Compound No.8] | 27.3 | 0.90 ± 0.66 | 18.3 | 3.40 ± 1.38 | 69.2 | 2.9 ± 0.7 | 100 | 3.6 ± 0.4 | 71.4 | 0.5 ± 0.5 | 100 | 2.9 ± 0.9 | 100 | 1.2 ± 0.2 | 100 | 3.5 ± 0.5 | 85.7 | 40 | ≥ 4000 | 34.4 ± 5.7 | Increase in life-span (T/C %) ([1]; 0.5 ng/0.2 ml/animal): 116%; Survivals after 40 days ([1]; 0.5 ng/0.2 ml/animal): 1; Mean survival days ([1]; 5 ng/0.2 ml/animal): 49.3 ± 5.6 days; Increase in life-span (T/C %) ([1]; 5 ng/0.2 ml/animal): 167%; Survivals after 40 days ([1]; 5 ng/0.2 ml/animal): 7; Mean survival days ([1]; 50 ng/0.2 ml/animal): 43.7 ± 4.0 days; Increase in life-span (T/C %) ([1]; 50 ng/0.2 ml/animal): 148%; Survivals after 40 days ([1]; 50 ng/0.2 ml/animal): 6 |
| CCN1C=CC(=CC=C(C=Cc2cc[n+](CC)c3ccccc23)c2cc[n+](CC)c3ccccc23)c2ccccc21 [compound 2] | 44.5 | – | – | – | – | – | – | – | – | – | – | – | – | – | – | – | – | – | – | – | LD50 (ddy mice; [10]): 30 mg/kg body weight; LD50 (ddy mice; oral administration): ≥ 4.0 g/kg body weight |
| CCN1C=CC(=CC=C(C=Cc2cc[n+](CC)c3ccccc23)c2cc[n+](CC)c3ccccc23)c2ccccc21 [compound 3] | 32.3 | – | – | – | – | – | – | – | – | – | – | – | – | – | – | – | – | – | – | – | LD50 (ddy mice; [10]): 31 mg/kg body weight; LD50 (ddy mice; oral administration): ≥ 4.0 g/kg body weight |
| CCN1C=CC(=CC=C(C=Cc2cc[n+](CC)c3ccccc23)c2cc[n+](CC)c3ccccc23)c2ccccc21 [compound 4] | 36.2 | – | – | – | – | – | – | – | – | – | – | – | – | – | – | – | – | – | – | – | LD50 (ddy mice; [10]): 37 mg/kg body weight; LD50 (ddy mice; oral administration): ≥ 4.0 g/kg body weight |
| CN1C=CC(=CC=C(C=Cc2cc[n+](C)c3ccccc23)c2cc[n+](C)c3ccccc23)c2ccccc21 [compound 6] | 41.8 | – | – | – | – | – | – | – | – | – | – | – | – | – | – | – | – | 65 | ≥ 4000 | – | – |
